Structures are written as SMILES. In brackets after ≈: the same amount, converted by molar mass. Where two headings read alike, the source gives them in different places.

These results are taken from PMC12135943, “Beyond Barriers, Big Crystallization Hurdles: Atropisomerism in Beyond Rule of Five Compounds Explored by Computational and NMR Studies” (Molecular Pharmaceutics, 2025).

Type in all cases: physicochemical
Data set [1] in a line: Approximate solvent solubility (ASS). The note with it: for solubility: organic solvents and solvent systems, 40 °C, organic solvent or mixture, thermodynamic from solid, stirring at 40 °C. Here is the method:
The approximate solubility of both compounds was determined in various organic solvents and solvent systems with a range of properties, including protic, aprotic, polar, and nonpolar solvents. Solubility tests were conducted under stirring at 40 °C, with concentrations ranging from 400 to 5 mg/mL. Solvents in which the solubility was below 5 mg/mL were classified as antisolvents. […]
Experimental procedures ACBI1:
Approximate solvent solubility (ASS):
Approximately 20.00 mg were weighed in HPLC vials, and a magnetic stirrer bar was inserted. Water bath temperature was set at 40 °C, and the initial 25 μL of the appropriate solvent was added into the vial. Stirring was initiated and the slurries were brought up to the desired set temperature. Observations were recorded and the next addition was performed according to the Table S1. The samples were stirred at 40 °C overnight, cooled down to ambient conditions and observations were recorded after 24 h.

Data set [2] can be described thus: Variable temperature NMR rotational barrier calculation (modified Eyring equation). The settings on record: for rotational energy barrier size: conclusion of NMR experiments. Here is the method: This equation allows quick evaluation of the rotational energy barrier as follows: ΔG^‡=RTcoal[22.96+ln(Tcoal/δν)] where R is the universal gas constant [J/mol·K], T coal is the coalescence temperature [K], and δν is the difference of the Larmor frequencies in [Hz] for the two observed signals for the rotameric pair. The energy calculated using this equation is given in J/mol, which is then converted into kcal/mol.
^1H NMR spectra were recorded in a suitable deuterated solvent using a Bruker Avance IIIHD NMR spectrometer with a working base frequency of 400 MHz, equipped with a helium cryogenically cooled ^1H/^13C /^15N TCI probehead. The temperature limits of the probehead are from −40 °C up to 150 °C. The ^1H NMR experiments are recorded at a proton resonance frequency of 400.13 MHz, and 100.61 MHz was used for the ^13C frequency. The temperature is regulated using a Bruker Smart Variable temperature unit and calibrated using NMR-thermometer sample calibration. The assignment of the proton and carbon signals is performed using ^1H and ^13C NMR experiments, such as 1D ^1H, 1D ^13C, and 2D experiments: ^1H–^1H COSY, ^1H–^1H ROESY, ^1H–^13C HSQC, and ^1H–^13C HMBC. The chemical shifts (δH and δC) are reported in parts per million referenced to the 0.01% of nondeuterated signal of the deuterated solvent in the proton-based experiments and to the signal of the fully deuterated solvent signal in the carbon dimensions.
The evaluation of the energy barrier for the single bond rotation by experiment serves as key information for the crystallization properties of the bRo5-like molecules. Single one-dimensional proton measurements at various temperatures in 10 K steps allow the assessment of the coalescence temperature and the calculation of the rotational barrier energy, as described below. Both model compounds, ACBI1 and BI201335, show a clearly observable doubled signal set for some of the signals in the NMR spectra at 303 K. This could be attributed to presence of rotamers and/or diastereoisomers, as shown in Figure and Figure for ACBI1 and Figure and Figure for BI201335. The discernment of whether the multiple of signal sets is observed due to a slow convergence between two or more forms or the presence of diastereoisomers is most easily accessed by performing a two-dimensional proton ROESY experiment. […] At this temperature, the exchange between the proton signals could be clearly observed by the presence of cross peaks with the same phase as the diagonal peaks. The Nuclear Overhauser Enhancement (NOE) proximity cross peaks for small molecules have an antidiagonal phase. This serves as proof for the presence of rotamers with rotational barrier that could not be overcome at 303 K and therefore no exchange cross peaks are measured. […] In contrast to the ACBI1, in the ROESY spectrum at 303 K for BI201335 the exchange cross peaks are measurable.
The variable temperature NMR experiments were performed in the temperature range from 303 to 393 K with a 10 K step in between the experiments. In the case of BI201335 there are two rotameric signal pairs for which an attempt to calculate the rotational barrier could be performed. […] An estimation of the potential rotational barrier nevertheless allows an approximation within a range of energy barriers to be calculated: if the coalescence temperature was 393 K, the rotational barrier for this signal pair would be 18.8 kcal/mol. […] At the last measured point of 393 K (clearly below the experimental coalescence temperature), the rotational barrier would be 19.4 kcal/mol. At 423 K the calculated energy barrier would be 20.9 kcal/mol, and at 453 K it would be 22.4 kcal/mol. Based on the lack of exchange signals in the ROESY spectra at lower temperatures and the shape of the signals at 393 K, a coalescence temperature around 450 K seems most plausible. Thus, the rotational barrier for ACBI1 is estimated as 22.4 kcal/mol, with an error range of about 1–1.5 kcal/mol.

The nature of data set [3]: Dynamical vapor sorption (DVS). The settings on record: crystalline solvent-free form; 0-90% RH. Here is the method:
Dynamical vapor sorption data were recorded on a DVS intrinsic system from surface measurement systems (SMS) under a N2 atmosphere. Water sorption/desorption isotherms were recorded from 0% to 90% RH followed by an additional run from 90% to 0% RH in equal steps of 10% RH.

Setting [4] is: solvents in which the compound was soluble, read-out: approximate solubility in organic solvents.

As for `Cc1ncsc1-c1ccc(CNC(=O)C2CC(O)CN2C(=O)C(NC(=O)C2(F)CC2)C(C)(C)C)c(OCCOc2ccc(CN3CCN(c4cc(-c5ccccc5O)nnc4N)CC3)cc2)c1` (centres unmarked) [ACBI1], the hydrophobicity result in data set [1] (from solvent solubility test (Table S1)) is given as “hydrophobic”. The solubility in data set [1] (a few solvents classified as potential antisolvents, read-out: approximate solubility in antisolvents) was less than 5 mg/mL; in data set [1] (setting [4]), 50 to 400 mg/mL (≈ 53.4 to 427 mM). The rotational barrier in data set [2] (calculated for 393 K, clearly below the coalescence temperature) is given as 19.4 kcal/mol. The figures for the calculated energy barrier in data set [2] (calculated for 423 K) and in data set [2] (calculated for 453 K) were 20.9 kcal/mol and 22.4 kcal/mol, respectively. Besides, in data set [2], the “rotational energy barrier size” value is reported as “above 20 kcal/mol”. The “rotational barrier (estimated)” value in data set [2] (error range of about 1–1.5 kcal/mol) is reported as 22.4 kcal/mol. The “coalescence temperature (most plausible)” value in data set [2] (not reached at 393 K, estimated from signal shape and ROESY) was “around 450 K”.

Take `C=C[C@@H]1C[C@]1(NC(=O)[C@@H]1C[C@@H](Oc2cc(-c3csc(NC(=O)C(C)C)n3)nc3c(Br)c(OC)ccc23)CN1C(=O)[C@@H](NC(=O)OC1CCCC1)C(C)(C)C)C(=O)O` [BI201335]: in data set [1] (setting [4]), the solubility was 75 to 400 mg/mL (≈ 86.2 to 460 mM). Further, the “rotational energy barrier size” value in data set [2] is “below 20 kcal/mol”. Besides, the coalescence temperature in data set [2] (signal pair 4.46 and 4.76 ppm at 303 K) was 393 K. Also, the rotational barrier in data set [2] (signal pair 4.46 and 4.76 ppm, coalescence temperature 393 K) is recorded as 18.9 kcal/mol; in data set [2] (signal pair 4.62 and 4.95 ppm, if the coalescence temperature was 393 K (not reached)) it was 18.8 kcal/mol. Besides, the rotational energy barrier in data set [2] (signal pair 4.62 and 4.95 ppm, estimated coalescence temperature 403 K) is 19.3 kcal/mol. Moreover, the “coalescence temperature (estimated)” value in data set [2] (signal pair 4.62 and 4.95 ppm, not converged at 393 K) was “around 403 K”. Further, the “hygroscopicity (DVS isotherm plot)” value in data set [3] is given as “slight hygroscopicity”.

By solubility is commonly meant the concentration that dissolves in the medium under given conditions.
